Assay [1] concerns the target hJAK2 (Homo sapiens (Human), UniProt O60674). The assay is described as follows: hJAK2 LANCE TR-FRET enzymatic assay. The format is biochemical. To be noted: read-out: JAK2 IC50.
Assay [2] addresses TBK1 (Homo sapiens (Human), UniProt Q9UHD2). The assay is described as follows: TBK1 TR-FRET enzymatic assay.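 Note: phosphorylation of a biotinylated Ser/Thr peptide by purified full-length recombinant TBK1, read by TR-FRET after 240 min at 25 °C, IC50 is the geometric mean of at least four runs.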
The target in assay [3] is IKKε (Homo sapiens (Human), UniProt Q14164). The assay is described as follows: IKKε TR-FRET enzymatic assay. In kind it is biochemical. To be noted: read-out: IKKe IC50.
Where [4] appears, read: TR-FRET, 2×Km ATP, geometric mean of minimum four determinations.

pIC50: −log10 of the molar value. Like-named read-outs stand apart in the source and are kept apart here.

Chain of IKKε (Q14164 whole entry): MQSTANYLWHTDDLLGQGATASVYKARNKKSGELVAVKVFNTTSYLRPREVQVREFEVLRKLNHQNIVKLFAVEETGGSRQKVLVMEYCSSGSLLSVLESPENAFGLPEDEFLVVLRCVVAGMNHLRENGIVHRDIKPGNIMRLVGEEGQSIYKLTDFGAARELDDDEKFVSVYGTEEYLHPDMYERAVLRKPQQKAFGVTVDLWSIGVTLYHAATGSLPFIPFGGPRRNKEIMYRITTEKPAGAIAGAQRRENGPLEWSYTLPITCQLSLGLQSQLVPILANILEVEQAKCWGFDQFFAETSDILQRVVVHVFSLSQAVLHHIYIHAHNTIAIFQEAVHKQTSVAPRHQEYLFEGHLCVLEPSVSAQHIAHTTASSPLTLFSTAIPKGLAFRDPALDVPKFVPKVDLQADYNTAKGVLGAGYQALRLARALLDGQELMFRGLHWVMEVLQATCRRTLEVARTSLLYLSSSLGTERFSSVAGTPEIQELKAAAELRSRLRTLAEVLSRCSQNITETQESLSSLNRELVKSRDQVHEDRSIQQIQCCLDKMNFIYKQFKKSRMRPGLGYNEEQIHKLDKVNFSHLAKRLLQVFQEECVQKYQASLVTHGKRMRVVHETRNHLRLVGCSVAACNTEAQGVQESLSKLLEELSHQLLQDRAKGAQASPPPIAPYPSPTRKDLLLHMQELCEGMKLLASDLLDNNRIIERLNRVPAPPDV
Chain of hJAK2 (O60674 whole entry): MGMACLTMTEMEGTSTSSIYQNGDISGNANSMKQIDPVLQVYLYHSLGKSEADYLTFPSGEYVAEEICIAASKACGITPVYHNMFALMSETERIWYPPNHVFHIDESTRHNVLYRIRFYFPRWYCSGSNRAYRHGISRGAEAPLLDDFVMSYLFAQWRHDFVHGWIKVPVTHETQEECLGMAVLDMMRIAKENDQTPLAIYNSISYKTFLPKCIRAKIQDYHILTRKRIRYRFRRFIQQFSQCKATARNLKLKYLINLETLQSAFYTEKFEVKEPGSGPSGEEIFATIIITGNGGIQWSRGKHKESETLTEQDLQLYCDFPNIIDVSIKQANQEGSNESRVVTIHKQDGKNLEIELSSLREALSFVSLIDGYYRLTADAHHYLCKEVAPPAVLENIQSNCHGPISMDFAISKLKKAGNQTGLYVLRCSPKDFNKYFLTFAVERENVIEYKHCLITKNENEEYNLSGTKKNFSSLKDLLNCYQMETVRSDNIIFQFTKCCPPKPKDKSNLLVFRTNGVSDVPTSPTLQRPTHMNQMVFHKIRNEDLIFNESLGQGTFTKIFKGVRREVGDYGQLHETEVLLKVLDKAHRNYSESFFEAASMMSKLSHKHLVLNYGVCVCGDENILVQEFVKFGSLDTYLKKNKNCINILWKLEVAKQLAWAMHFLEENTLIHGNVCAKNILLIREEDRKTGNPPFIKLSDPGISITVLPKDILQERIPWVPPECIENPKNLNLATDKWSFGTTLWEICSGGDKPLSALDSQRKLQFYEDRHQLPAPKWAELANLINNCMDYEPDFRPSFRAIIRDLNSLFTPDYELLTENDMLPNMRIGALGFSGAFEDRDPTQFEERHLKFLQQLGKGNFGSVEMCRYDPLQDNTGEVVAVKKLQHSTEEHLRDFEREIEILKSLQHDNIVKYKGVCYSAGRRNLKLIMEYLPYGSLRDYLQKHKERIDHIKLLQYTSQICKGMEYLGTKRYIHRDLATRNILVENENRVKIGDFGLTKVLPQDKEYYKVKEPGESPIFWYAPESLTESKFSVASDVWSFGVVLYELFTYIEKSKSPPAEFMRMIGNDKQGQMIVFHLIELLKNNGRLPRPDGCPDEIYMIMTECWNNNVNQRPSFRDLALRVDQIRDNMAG
Chain of TBK1 (Q9UHD2 whole entry): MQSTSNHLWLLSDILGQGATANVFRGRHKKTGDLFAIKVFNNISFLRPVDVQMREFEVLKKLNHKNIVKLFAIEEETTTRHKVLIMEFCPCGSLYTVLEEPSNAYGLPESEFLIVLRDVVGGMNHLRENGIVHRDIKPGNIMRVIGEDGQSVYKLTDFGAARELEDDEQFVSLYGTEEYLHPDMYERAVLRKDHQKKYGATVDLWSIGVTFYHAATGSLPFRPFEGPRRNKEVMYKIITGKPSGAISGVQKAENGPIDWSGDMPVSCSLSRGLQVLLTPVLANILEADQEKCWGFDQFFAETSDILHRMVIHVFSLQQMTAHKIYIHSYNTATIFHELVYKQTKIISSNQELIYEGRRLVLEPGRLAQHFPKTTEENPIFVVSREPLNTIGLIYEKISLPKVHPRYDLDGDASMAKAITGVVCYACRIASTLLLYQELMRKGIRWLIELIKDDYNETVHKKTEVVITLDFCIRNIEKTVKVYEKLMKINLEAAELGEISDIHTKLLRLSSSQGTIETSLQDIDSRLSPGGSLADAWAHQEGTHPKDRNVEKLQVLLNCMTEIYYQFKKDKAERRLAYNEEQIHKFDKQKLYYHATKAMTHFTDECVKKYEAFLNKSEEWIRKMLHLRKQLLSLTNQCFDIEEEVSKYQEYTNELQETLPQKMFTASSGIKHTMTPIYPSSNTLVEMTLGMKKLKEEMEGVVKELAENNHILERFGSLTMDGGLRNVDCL

Turning to `CN1CCC(COc2ccc(-c3ncnc(Nc4ccc(N5CCN(C6COC6)CC5)cc4)n3)cc2C#N)CC1=O` (stereo not drawn) [Example 596, 2-((1-methyl-2-oxopiperidin-4-yl)methoxy)-5-(4-((4-(4-(oxetan-3-yl)piperazin-1-yl)phenyl)amino)-1,3,5-triazin-2-yl)benzonitrile], the results for the negative-log IC50 (pIC50) in assay [1], in assay [2] and in assay [3] (setting [4]) were not above 6.00, 6.58 and 6.39, respectively.
As to `C[C@H](O)C(=O)N1CC[C@H](Oc2ccc(-c3ncnc(Nc4cnn(CC(F)F)c4)n3)cc2C#N)[C@H](F)C1` [Example 352, 5-(4-((1-(2,2-difluoroethyl)-1H-pyrazol-4-yl)amino)-1,3,5-triazin-2-yl)-2-(((3R,4S)-3-fluoro-1-((S)-2-hydroxypropanoyl)piperidin-4-yl)oxy)benzonitrile], the values for the negative logarithm of the IC50 (pIC50) in assay [1], in assay [2] and in assay [3] were not above 6.00, 8.40 and 8.40, respectively.
As to `Cn1ccc(C(=O)N2CCC(COc3ccc(-c4ncnc(Nc5ccc(N6CCN(C7COC7)CC6)cc5)n4)cc3C#N)CC2)cc1=O` [Example 593, 2-((1-(1-methyl-2-oxo-1,2-dihydropyridine-4-carbonyl)piperidin-4-yl)methoxy)-5-(4-((4-(4-(oxetan-3-yl)piperazin-1-yl)phenyl)amino)-1,3,5-triazin-2-yl)benzonitrile], the pIC50 in assay [1] is not above 6.00; in assay [2], 6.34; in assay [3] (setting [4]), 6.18.
On to `C[C@H](O)C(=O)N1CC[C@H](Oc2ccc(-c3ncnc(Nc4ccc(N5CC(C)(O)C5)cc4)n3)cc2C#N)[C@H](F)C1` [Example 342, 2-(((3R,4S)-3-fluoro-1-((S)-2-hydroxypropanoyl)piperidin-4-yl)oxy)-5-(4-((4-(3-hydroxy-3-methylazetidin-1-yl)phenyl)amino)-1,3,5-triazin-2-yl)benzonitrile], for which the results for the negative-log IC50 (pIC50) in assay [1], in assay [2] and in assay [3] were 6.30, 8.70 and 9.00, respectively.
Consider `Cc1nn(C)c2cc(Nc3ncnc(-c4ccc(O[C@H]5CCN(C(=O)[C@H](C)O)C[C@H]5F)c(C#N)c4)n3)ccc12` [Example 347, 5-(4-((1,3-dimethyl-1H-indazol-6-yl)amino)-1,3,5-triazin-2-yl)-2-(((3R,4S)-3-fluoro-1-((S)-2-hydroxypropanoyl)piperidin-4-yl)oxy)benzonitrile], for which the negative-log IC50 (pIC50) in assay [1] was not above 6.00; in assay [2], 8.40; in assay [3] it was 8.30.
In the case of `N#Cc1cc(-c2ncnc(Nc3ccc(N4CCN(C5COC5)CC4)cc3)n2)ccc1N1CC2(CCO2)C1` [Example 210, 5-(4-((4-(4-(oxetan-3-yl)piperazin-1-yl)phenyl)amino)-1,3,5-triazin-2-yl)-2-(1-oxa-6-azaspiro[3.3]heptan-6-yl)benzonitrile], the pIC50 in assay [1] is 6.45; in assay [2] it was 7.59; in assay [3], 7.15.
The matching figures for `CS(=O)(=O)C1CN(c2ccc(-c3ncnc(Nc4ccc(N5CCN(C6COC6)CC5)cc4)n3)cc2C#N)C1` [Example 272, 2-(3-(methylsulfonyl)azetidin-1-yl)-5-(4-((4-(4-(oxetan-3-yl)piperazin-1-yl)phenyl)amino)-1,3,5-triazin-2-yl)benzonitrile]: 7.17, 7.55 and 7.28.
As for `CC(C)(O)C(=O)N1CCC(Oc2ccc(-c3ncnc(Nc4ccc(N5CCN(C6COC6)CC5)cc4)n3)cc2C#N)CC1` [Example 45, 2-((1-(2-hydroxy-2-methylpropanoyl)piperidin-4-yl)oxy)-5-(4-((4-(4-(oxetan-3-yl)piperazin-1-yl)phenyl)amino)-1,3,5-triazin-2-yl)benzonitrile], the pIC50 is less than 6.00 in assay [1], 6.69 in assay [2] and 6.61 in assay [3].
Regarding `C[C@H](O)C(=O)N1CC[C@H](Oc2ccc(-c3ncnc(Nc4ccc(N5CC6COCC6C5)cc4)n3)cc2C#N)[C@H](F)C1` (stereo partly drawn) [Example 317, 2-(((3R,4S)-3-fluoro-1-((S)-2-hydroxypropanoyl)piperidin-4-yl)oxy)-5-(4-((4-(tetrahydro-1H-furo[3,4-c]pyrrol-5(3H)-yl)phenyl)amino)-1,3,5-triazin-2-yl)benzonitrile], the negative-log IC50 (pIC50) in assay [1] was not above 6.00; in assay [2] it was 8.70; in assay [3], 9.00.
On to `C[C@H](O)C(=O)N1CC[C@H](Oc2ccc(-c3ncnc(Nc4ccc(N5CCO[C@H](CO)C5)cc4)n3)cc2C#N)[C@H](F)C1` [Example 233, 2-(((3R,4S)-3-fluoro-1-((S)-2-hydroxypropanoyl)piperidin-4-yl)oxy)-5-(4-((4-((S)-2-(hydroxymethyl)morpholino)phenyl)amino)-1,3,5-triazin-2-yl)benzonitrile], for which the pIC50 in assay [1] is 6.48; in assay [2], 8.70; in assay [3], 9.00.
`CS(=O)(=O)N1CC[C@@H](Oc2ccc(-c3ncnc(Nc4ccc(N5CCN(C6COC6)CC5)cc4)n3)cc2C#N)C1` [Example 197, (R)-2-((1-(methylsulfonyl)pyrrolidin-3-yl)oxy)-5-(4-((4-(4-(oxetan-3-yl)piperazin-1-yl)phenyl)amino)-1,3,5-triazin-2-yl)benzonitrile]: the figures for the pIC50 in assay [1], in assay [2] and in assay [3] were 6.76, 7.59 and 7.10, respectively.
As for `N#Cc1cc(-c2ncnc(Nc3ccc(N4CCN(C5COC5)CC4)cc3)n2)ccc1O[C@H]1CCN(C(=O)NO)C[C@H]1F` [Example 478, (3R,4S)-4-(2-cyano-4-(4-((4-(4-(oxetan-3-yl)piperazin-1-yl)phenyl)amino)-1,3,5-triazin-2-yl)phenoxy)-3-fluoro-N-hydroxypiperidine-1-carboxamide], the negative logarithm of the IC50 (pIC50) was 6.87 in assay [1], 8.52 in assay [2] and 9.00 in assay [3] (setting [4]).
Turning to `C[C@H](O)C(=O)N1CC[C@H](Oc2ccc(-c3ncnc(Nc4ccc(N5CCN(CCO)CC5)cc4)n3)cc2C#N)[C@H](F)C1` [Example 583, 2-(((3R,4S)-3-fluoro-1-((S)-2-hydroxypropanoyl)piperidin-4-yl)oxy)-5-(4-((4-(4-(2-hydroxyethyl)piperazin-1-yl)phenyl)amino)-1,3,5-triazin-2-yl)benzonitrile], the pIC50 in assay [1] is 6.32; in assay [2], 8.70; in assay [3] (setting [4]) it was 9.00.
In the case of `N#Cc1cc(-c2ncnc(Nc3ccc(N4CCOCC4)cc3)n2)ccc1O[C@H]1CCN(C(=O)[C@@H](O)CO)C[C@H]1F` [Example 555, 2-(((3R,4S)-1-((S)-2,3-dihydroxypropanoyl)-3-fluoropiperidin-4-yl)oxy)-5-(4-((4-morpholinophenyl)amino)-1,3,5-triazin-2-yl)benzonitrile], the pIC50 was 6.14 in assay [1], 8.40 in assay [2] and 9.00 in assay [3] (setting [4]).
Regarding `C[C@@H]1CN(c2ccc(Nc3ncnc(-c4ccc(O[C@H]5CCN(C(=O)[C@@H]6CCC(=O)N6)C[C@H]5F)c(C#N)c4)n3)cc2)CCN1C1COC1` [Example 542, 2-(((3R,4S)-3-fluoro-1-((S)-5-oxopyrrolidine-2-carbonyl)piperidin-4-yl)oxy)-5-(4-((4-((R)-3-methyl-4-(oxetan-3-yl)piperazin-1-yl)phenyl)amino)-1,3,5-triazin-2-yl)benzonitrile], the values for the pIC50 in assay [1], in assay [2] and in assay [3] (setting [4]) were 6.44, 8.22 and 8.40, respectively.
The matching figures for `CO[C@@H](C)C(=O)N1CC[C@H](Oc2ccc(-c3ncnc(Nc4ccc(N5CCN(C6COC6)CC5)cc4)n3)cc2C#N)[C@H](F)C1` [Example 547, 2-(((3R,4S)-3-fluoro-1-((S)-2-methoxypropanoyl)piperidin-4-yl)oxy)-5-(4-((4-(4-(oxetan-3-yl)piperazin-1-yl)phenyl)amino)-1,3,5-triazin-2-yl)benzonitrile]: not above 6.00, 7.96 and 7.44.
Take `N#Cc1cc(-c2ncnc(Nc3ccc(N4CCN(C5COC5)CC4)cc3)n2)ccc1O[C@H]1CCN(C(=O)N2CCCC2)C[C@H]1F` [Example 424, 2-(((3R,4S)-3-fluoro-1-(pyrrolidine-1-carbonyl)piperidin-4-yl)oxy)-5-(4-((4-(4-(oxetan-3-yl)piperazin-1-yl)phenyl)amino)-1,3,5-triazin-2-yl)benzonitrile]: the negative logarithm of the IC50 (pIC50) is not above 6.00 in assay [1], 8.22 in assay [2] and 7.92 in assay [3] (setting [4]).
On to `N#Cc1cc(-c2ncnc(Nc3ccc(N4CCN(C5COC5)CC4)cc3)n2)ccc1N1CCCC1` [Example 10, 5-(4-((4-(4-(oxetan-3-yl)piperazin-1-yl)phenyl)amino)-1,3,5-triazin-2-yl)-2-(pyrrolidin-1-yl)benzonitrile], for which the pIC50 in assay [1] was 6.47; in assay [2], 8.30; in assay [3], 7.82.
As for `N#Cc1cc(-c2ncnc(Nc3ccc(N4CCN(C5COC5)CC4)cc3)n2)ccc1O[C@H]1CCN(c2ccccn2)C[C@H]1F` [Example 480, 2-(((3R,4S)-3-fluoro-1-(pyridin-2-yl)piperidin-4-yl)oxy)-5-(4-((4-(4-(oxetan-3-yl)piperazin-1-yl)phenyl)amino)-1,3,5-triazin-2-yl)benzonitrile], the pIC50 was not above 6.00 in assay [1], 7.33 in assay [2] and 6.74 in assay [3] (setting [4]).
Consider `N#Cc1cc(-c2ncnc(Nc3ccc(N4CCN(C5COC5)CC4)cc3)n2)ccc1O[C@H]1CCN(C(=O)[C@@H]2C[C@@H](O)CN2)C[C@H]1F` [Example 589, 2-(((3R,4S)-3-fluoro-1-((2S,4R)-4-hydroxypyrrolidine-2-carbonyl)piperidin-4-yl)oxy)-5-(4-((4-(4-(oxetan-3-yl)piperazin-1-yl)phenyl)amino)-1,3,5-triazin-2-yl)benzonitrile], for which the pIC50 in assay [1] was 6.07; in assay [2], 7.74; in assay [3] (setting [4]), 7.55.

The record behind these values is patent US10040781B2, “Tank-binding kinase inhibitor compounds” (Gilead Sciences, Inc., priority 2014, dated 2018).
